Tests used:
rabbit = details: Sub-acute dermal toxicity, new zealand white, Topical, dose end: 21 day, group: systemic
rat [1] = details: Prenatal developmental toxicity study, wistar, Oral, Gavage/Intubation, dose end: 15 GD
rat [2] = details: Carcinogenicity, fischer, Oral, Feed, dose end: 103 week, group: systemic
rat [3] = details: Subchronic oral toxicity in rodents, fischer, Feed, dose end: 13 week, group: systemic
mouse [4] = details: Subchronic oral toxicity in rodents, b6c3f1, Feed, dose end: 13 week, group: systemic
mouse [5] = details: Carcinogenicity, b6c3f1, Oral, Feed, dose end: 103 week, group: systemic
mouse [6] = details: Subchronic oral toxicity in rodents, b6c3f1, Water, dose end: 13 week, group: systemic
rat [7] = details: Subchronic oral toxicity in rodents, fischer, Feed, dose end: 13 week, group: systemic; remark: listed apart in the source
mouse [8] = details: Combined chronic toxicity/carcinogenicity; b6c3f1; Oral; Feed; dose end: 2 year; group: systemic; systemic / in life observation / body weight / body weight
mouse [9] = details: Prenatal developmental toxicity study, cd1, Oral, Gavage/Intubation, dose end: 14 GD
rat [10] = details: Combined chronic toxicity/carcinogenicity, fischer, Oral, Feed, dose end: 2 year, group: systemic
rat [11] = details: Prenatal developmental toxicity study, sprague dawley, Oral, Gavage/Intubation, dose end: 15 GD
mouse [12] = details: Subchronic oral toxicity in rodents, b6c3f1, Feed, dose end: 13 week, group: systemic; remark: listed apart in the source
mouse [13] = details: Prenatal developmental toxicity study, cd1, Oral, Gavage/Intubation, dose end: 15 GD
mouse [14] = details: Carcinogenicity, cd1, Oral, Feed, dose end: 18 month, group: systemic
rat [15] = details: Combined chronic toxicity/carcinogenicity, sprague dawley, Oral, Feed, dose end: 24 month, group: systemic
rat [16] = details: Subchronic oral toxicity in rodents, sprague dawley, Feed, dose end: 90 day, group: systemic
rat [17] = details: Multigenerational reproductive toxicity study, sprague dawley, Oral, Feed, dose end: 2 generation
dog = details: Chronic toxicity, beagle, Oral, Capsule, dose end: 52 week, group: systemic
rat [18] = details: Combined chronic toxicity/carcinogenicity; fischer; Oral; Feed; dose end: 365 day; group: systemic; systemic / pathology gross / full gross necropsy / adenoma
mouse [19] = details: Combined chronic toxicity/carcinogenicity; other; Oral; Feed; dose end: 365 day; group: systemic; systemic / pathology gross / full gross necropsy / lymphoma malignant
[20] = systemic / in life observation / clinical signs / erythema
[21] = systemic / in life observation / clinical signs / erythema + systemic / in life observation / body weight / body weight + systemic / in life…
[22] = group: developmental, developmental / developmental malformation / eye / anophthalmia + developmental / developmental malformation / eye / microphthalmia + …
[23] = group: maternal, systemic / in life observation / body weight / body weight gain + systemic / in life observation / clinical signs / labored respiration
[24] = group: maternal, systemic / in life observation / body weight / body weight gain + systemic / in life observation / clinical signs / labored respiration + …
[25] = systemic / pathology microscopic / liver / basophilic focus + systemic / pathology microscopic / liver / eosinophilic focus + systemic / …
[26] = systemic / pathology microscopic / liver / hyperplasia + systemic / pathology microscopic / liver / basophilic focus + systemic / pathology …
[27] = systemic / in life observation / body weight / body weight + systemic / pathology microscopic / kidney / pigmentation + systemic / in life …
[28] = systemic / pathology microscopic / kidney / hemosiderosis + systemic / pathology microscopic / liver / hemosiderosis + systemic / pathology …
[29] = systemic / in life observation / body weight / body weight
[30] = systemic / in life observation / body weight / body weight + systemic / in life observation / clinical signs / emaciation + systemic / in …
[31] = systemic / pathology microscopic / nose / degeneration
[32] = systemic / in life observation / body weight / body weight + systemic / in life observation / clinical signs / aggressive behavior + …
[33] = group: developmental, systemic / in life observation / body weight / fetal weight
[34] = group: developmental, systemic / in life observation / body weight / fetal weight + developmental / developmental malformation / mouth / jaw / cleft palate
[35] = group: maternal, systemic / in life observation / body weight / body weight gain
[36] = group: maternal, systemic / in life observation / body weight / body weight gain + systemic / in life observation / body weight / body weight + systemic / in…
[37] = systemic / pathology microscopic / liver / granuloma
[38] = systemic / pathology microscopic / liver / granuloma + systemic / pathology microscopic / pituitary gland / adenoma
[39] = group: developmental, developmental / developmental malformation / kidney / hydronephrosis + developmental / developmental malformation / ureter / hydroureter + …
[40] = group: maternal, systemic / in life observation / body weight / body weight + systemic / in life observation / body weight / body weight gain + systemic / in…
[41] = systemic / in life observation / body weight / body weight + systemic / in life observation / clinical signs / fur (altered appearance) + …
[42] = group: developmental, developmental / developmental malformation / mouth / jaw / cleft palate + systemic / in life observation / body weight / fetal weight
[43] = group: maternal, systemic / in life observation / body weight / body weight gain + systemic / in life observation / body weight / body weight + systemic / …
[44] = systemic / hematology / anemia / anemia - nos + systemic / hematology / erythrocyte (rbc) count differential / erythrocyte (rbc) + systemic…
[45] = systemic / in life observation / clinical signs / fur (altered appearance) + systemic / pathology gross / penis / prolapse
[46] = systemic / hematology / erythrocyte (rbc) count differential / erythrocyte (rbc) + systemic / hematology / hematocrit (hct) / hematocrit (…
[47] = systemic / in life observation / clinical signs / fur (altered appearance) + systemic / in life observation / clinical signs / urine, …
[48] = group: offspring, systemic / in life observation / body weight / offspring (pup) weight
[49] = group: parental, systemic / pathology gross / spleen / discolored + systemic / pathology microscopic / spleen / congestion + systemic / pathology microscopic…
[50] = group: reproductive, reproductive / offspring survival early / litter size / litter size
[51] = systemic / clinical chemistry / cholesterol / cholesterol + systemic / clinical chemistry / bilirubin / total bilirubin + systemic / …
[52] = systemic / hematology / platelet / platelet + systemic / organ weight / spleen / absolute + systemic / organ weight / spleen / relative to …

Cc1cc(O)ccc1Cl [4-Chloro-3-methylphenol]
LOAEL (rabbit; [20]): 10 mg/kg/day | NOAEL (rabbit; [20]): < 10 mg/kg/day | LEL (rabbit; [21]): 10 mg/kg/day | NEL (rabbit; [21]): < 10 mg/kg/day | LEL (rat [1]; [22]): 300 mg/kg/day | LOAEL (rat [1]; [22]): 300 mg/kg/day | NEL (rat [1]; [22]): 100 mg/kg/day | NOAEL (rat [1]; [22]): 100 mg/kg/day | LEL (rat [1]; [23]): 100 mg/kg/day | LOAEL (rat [1]; [23]): 100 mg/kg/day | NEL (rat [1]; [24]): 30 mg/kg/day | NOAEL (rat [1]; [24]): 30 mg/kg/day

Oc1ccc2ccccc2c1N=Nc1ccccc1 [C.I. Solvent Yellow 14]
LOAEL (rat [2]; [25]): 25 mg/kg/day | NOAEL (rat [2]; [25]): 12.5 mg/kg/day | LEL (rat [2]; [26]): 12.5 mg/kg/day | NEL (rat [2]; [26]): < 12.5 mg/kg/day | NEL (rat [3]; [27]): 12.5 mg/kg/day | NOAEL (rat [3]; [27]): 25 mg/kg/day | LOAEL (rat [3]; systemic / in life observation / body weight / body weight + systemic / pathology microscopic / kidney / pigmentation + systemic / pathology…): 50 mg/kg/day | LEL (rat [3]; systemic / pathology microscopic / kidney / pigmentation): 25 mg/kg/day | LOAEL (mouse [4]; [28]): 300 mg/kg/day | NEL (mouse [4]; [28]): 75 mg/kg/day | NOAEL (mouse [4]; [28]): 150 mg/kg/day | LEL (mouse [4]; systemic / pathology microscopic / spleen / hemosiderosis): 150 mg/kg/day | LEL (mouse [5]; [29]): 75 mg/kg/day | LOAEL (mouse [5]; [29]): 150 mg/kg/day | NEL (mouse [5]; [29]): < 75 mg/kg/day | NOAEL (mouse [5]; systemic / in life observation / body weight / body weight + systemic / in life observation / body weight / body weight gain): 75 mg/kg/day

ON=C1CCCCC1 [Cyclohexanone oxime]
LOAEL (mouse [6]; [30]): > 1150 mg/kg/day | NOAEL (mouse [6]; [30]): ≥ 1150 mg/kg/day | LEL (mouse [6]; [31]): 132 mg/kg/day | NEL (mouse [6]; [31]): < 132 mg/kg/day

CN(C)CCOC(c1ccccc1)c1ccccc1.Cl [Diphenhydramine hydrochloride]
LOAEL (rat [7]; [29]): 31.3 mg/kg/day | NEL (rat [7]; [32]): 7.8 mg/kg/day | NOAEL (rat [7]; [32]): 15.7 mg/kg/day | LEL (rat [7]; systemic / pathology microscopic / liver / vacuolization cytoplasmic): 15.7 mg/kg/day | LEL (mouse [8]): 21 mg/kg/day | LOAEL (mouse [8]): 46 mg/kg/day | NEL (mouse [8]): < 21 mg/kg/day | NOAEL (mouse [8]): 21 mg/kg/day | LEL (mouse [9]; [33]): 80 mg/kg/day | NEL (mouse [9]; [33]): < 80 mg/kg/day | LOAEL (mouse [9]; [34]): > 200 mg/kg/day | NOAEL (mouse [9]; [34]): ≥ 200 mg/kg/day | LEL (mouse [9]; [35]): 80 mg/kg/day | NEL (mouse [9]; [35]): < 80 mg/kg/day | LOAEL (mouse [9]; [36]): > 200 mg/kg/day | NOAEL (mouse [9]; [36]): ≥ 200 mg/kg/day | LEL (rat [10]; [37]): 7 mg/kg/day | NEL (rat [10]; [37]): < 7 mg/kg/day | LOAEL (rat [10]; [38]): > 15 mg/kg/day | NOAEL (rat [10]; [38]): ≥ 15 mg/kg/day | LEL (rat [11]; [39]): 100 mg/kg/day | LOAEL (rat [11]; [39]): > 100 mg/kg/day | NEL (rat [11]; [39]): 50 mg/kg/day | NOAEL (rat [11]; [39]): ≥ 100 mg/kg/day | LEL (rat [11]; [40]): 100 mg/kg/day | LOAEL (rat [11]; [40]): > 100 mg/kg/day | NEL (rat [11]; [40]): 50 mg/kg/day | NOAEL (rat [11]; [40]): ≥ 100 mg/kg/day | LOAEL (mouse [12]; [29]): 93.8 mg/kg/day | LEL (mouse [12]; [41]): 93.8 mg/kg/day | NEL (mouse [12]; [41]): 47 mg/kg/day | NOAEL (mouse [12]; [41]): 47 mg/kg/day | LEL (mouse [13]; group: developmental, developmental / developmental malformation / mouth / jaw / cleft palate): 80 mg/kg/day | LOAEL (mouse [13]; [42]): > 160 mg/kg/day | NEL (mouse [13]; [42]): 40 mg/kg/day | NOAEL (mouse [13]; [42]): ≥ 160 mg/kg/day | LEL (mouse [13]; [35]): 80 mg/kg/day | LOAEL (mouse [13]; [43]): > 160 mg/kg/day | NEL (mouse [13]; [43]): 40 mg/kg/day | NOAEL (mouse [13]; [43]): ≥ 160 mg/kg/day

c1ccc(Nc2ccccc2)cc1 [Diphenylamine]
LOAEL (mouse [14]; [44]): 368 mg/kg/day | NOAEL (mouse [14]; [44]): 73.2 mg/kg/day | LEL (mouse [14]; [45]): 73.2 mg/kg/day | NEL (mouse [14]; [45]): < 73.2 mg/kg/day | LOAEL (rat [15]; [46]): 138 mg/kg/day | NEL (rat [15]; [46]): 7.5 mg/kg/day | NOAEL (rat [15]; [46]): 24.9 mg/kg/day | LEL (rat [15]; systemic / hematology / erythrocyte (rbc) count differential / erythrocyte (rbc) + systemic / pathology gross / spleen / discolored + …): 24.9 mg/kg/day | LOAEL (rat [16]; [47]): 547 mg/kg/day | NEL (rat [16]; [47]): 9.6 mg/kg/day | NOAEL (rat [16]; [47]): 95.8 mg/kg/day | LEL (rat [16]; systemic / pathology microscopic / spleen / hematopoietic cell proliferation erythrocytic): 95.8 mg/kg/day | LEL (rat [17]; [48]): 115 mg/kg/day | LOAEL (rat [17]; [48]): 115 mg/kg/day | NEL (rat [17]; [48]): 40 mg/kg/day | NOAEL (rat [17]; [48]): 40 mg/kg/day | LEL (rat [17]; [49]): 40 mg/kg/day | LOAEL (rat [17]; [49]): 40 mg/kg/day | NEL (rat [17]; [49]): < 40 mg/kg/day | NOAEL (rat [17]; [49]): < 40 mg/kg/day | LEL (rat [17]; [50]): 399 mg/kg/day | LOAEL (rat [17]; [50]): 399 mg/kg/day | NEL (rat [17]; [50]): 115 mg/kg/day | NOAEL (rat [17]; [50]): 115 mg/kg/day | LOAEL (dog; [51]): 50 mg/kg/day | NOAEL (dog; [51]): 10 mg/kg/day | LEL (dog; [52]): 10 mg/kg/day | NEL (dog; [52]): < 10 mg/kg/day

NC(N)=O [Urea]
LEL (rat [18]): 225 mg/kg/day | LOAEL (rat [18]): > 225 mg/kg/day | NEL (rat [18]): < 225 mg/kg/day | NOAEL (rat [18]): ≥ 225 mg/kg/day | LEL (mouse [19]): 675 mg/kg/day | LOAEL (mouse [19]): > 675 mg/kg/day | NEL (mouse [19]): < 675 mg/kg/day | NOAEL (mouse [19]): ≥ 675 mg/kg/day

— EPA's ToxRefDB 2
